Literature values, collected in US20110117175A1, “SWEET ANALGESIC FOR USE IN MEDICAL PROCEDURES OR TREATMENTS” (priority 2009, published 2011).

Assays:
[1] = system: patients older than infants
[2] = minimal amount of sugar used
[3] = system: infant or neonate
[4] = 1 to 2 drops on tongue or pacifier

Compound: OC[C@H]1O[C@@](CO)(O[C@H]2O[C@H](CO)[C@@H](O)[C@H](O)[C@H]2O)[C@@H](O)[C@@H]1O [sucrose]
- use as an analgesic ([1]; adult patients (studies of adult woman)): ineffective
- pain relief ([1]; patients older than infants): unsuccessful
- blood glucose levels [2]: no increase
- duration of infant or neonate response [3, 4]: up to 10 minutes
- time to infant or neonate response [3, 4]: up to 10 seconds
- pain response ([3]; infant or neonate, given prior to a painful procedure): decreases the pain response
